# ± gives the expanded uncertainty stated by the source.
# Settings: Liquid, Ebulliometric method (Recirculating still)
vapor or sublimation pressure (324.4 K) [kPa],vapor or sublimation pressure (333.4 K) [kPa],vapor or sublimation pressure (340 K) [kPa],vapor or sublimation pressure (345.5 K) [kPa],vapor or sublimation pressure (350.1 K) [kPa],vapor or sublimation pressure (354.1 K) [kPa],vapor or sublimation pressure (357.7 K) [kPa],vapor or sublimation pressure (360.9 K) [kPa],vapor or sublimation pressure (363.8 K) [kPa],vapor or sublimation pressure (332.4 K) [kPa],vapor or sublimation pressure (341.4 K) [kPa],vapor or sublimation pressure (348.3 K) [kPa],vapor or sublimation pressure (353.9 K) [kPa],vapor or sublimation pressure (358.5 K) [kPa],vapor or sublimation pressure (362.6 K) [kPa],vapor or sublimation pressure (366.2 K) [kPa],vapor or sublimation pressure (369.4 K) [kPa],vapor or sublimation pressure (372.4 K) [kPa],SMILES
5 ± 0.1,7.5 ± 0.1,10 ± 0.1,12.5 ± 0.1,15 ± 0.1,17.5 ± 0.1,20 ± 0.2,22.5 ± 0.2,25 ± 0.2,–,–,–,–,–,–,–,–,–,CCc1ccccc1 [ethylbenzene]
–,–,–,–,–,–,–,–,–,5 ± 0.1,7.5 ± 0.1,10 ± 0.1,12.5 ± 0.1,15 ± 0.1,17.5 ± 0.1,20 ± 0.2,22.5 ± 0.2,25 ± 0.2,C=Cc1ccccc1 [styrene]

# From the NIST ThermoML archive (doi:10.1021/je200098d)
